Assay results taken from PMC6009921, “Carbon- versus sulphur-based zinc binding groups for carbonic anhydrase inhibitors?” (Journal of Enzyme Inhibition and Medicinal Chemistry, 2018).
Read-outs that look alike come from different tables or passages of the source.

How the values were obtained:
Assay in all cases: stopped-flow CO2 hydration
Format in all cases: biochemical
hCA IX = biological target: T1, hCA IX (Homo sapiens, UniProt Q16790)
T1 construct: gene CA9; recombinant, obtained in-house
From the text: stopped-flow CO2 hydration on hCA IX

hCA I [1] = biological target: T2, hCA I (Homo sapiens, UniProt P00915)
T2 construct: gene CA1; recombinant, obtained in-house
T2 sequence (P00915 2-261): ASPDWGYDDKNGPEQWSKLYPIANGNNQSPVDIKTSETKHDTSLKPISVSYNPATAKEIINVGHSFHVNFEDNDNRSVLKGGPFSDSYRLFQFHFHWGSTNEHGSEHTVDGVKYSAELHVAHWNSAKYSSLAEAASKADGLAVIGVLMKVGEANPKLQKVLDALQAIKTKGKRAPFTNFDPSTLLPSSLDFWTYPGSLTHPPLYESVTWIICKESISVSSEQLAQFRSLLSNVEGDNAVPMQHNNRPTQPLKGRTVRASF

hCA II = biological target: T3, hCA II (Homo sapiens, UniProt P00918)
T3 construct: gene CA2; recombinant, obtained in-house

hCA XII = biological target: T4, hCA XII (Homo sapiens, UniProt O43570)
T4 construct: gene CA12; recombinant, obtained in-house
T4 sequence (O43570 30-289 limits assumed): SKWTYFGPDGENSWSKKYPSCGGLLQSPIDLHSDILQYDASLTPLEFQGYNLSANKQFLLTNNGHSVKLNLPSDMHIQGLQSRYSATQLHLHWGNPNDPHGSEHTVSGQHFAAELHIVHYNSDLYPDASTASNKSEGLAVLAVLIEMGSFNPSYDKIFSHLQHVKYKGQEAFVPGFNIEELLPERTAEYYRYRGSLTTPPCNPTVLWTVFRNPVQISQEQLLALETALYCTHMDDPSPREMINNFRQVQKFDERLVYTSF

hCA VI = biological target: T5, hCA VI (Homo sapiens, UniProt P23280); conditions: read-out: KI (μM)^a^,^b / hCA VI
T5 construct: gene CA6; recombinant, obtained in-house
T5 sequence (P23280 18-308): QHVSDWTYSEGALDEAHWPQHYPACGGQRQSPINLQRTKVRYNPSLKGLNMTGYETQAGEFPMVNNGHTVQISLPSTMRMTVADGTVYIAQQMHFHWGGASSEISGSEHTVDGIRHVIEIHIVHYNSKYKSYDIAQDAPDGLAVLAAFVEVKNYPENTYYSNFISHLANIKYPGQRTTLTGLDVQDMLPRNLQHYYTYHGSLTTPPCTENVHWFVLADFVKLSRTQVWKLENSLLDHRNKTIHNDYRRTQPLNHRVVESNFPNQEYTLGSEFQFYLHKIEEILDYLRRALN
From the text: stopped-flow CO2 hydration on hCA VI

hCA VA = biological target: T6, hCA VA (Homo sapiens, UniProt P35218); conditions: read-out: KI (μM)^a^,^b / hCA VA
T6 construct: gene CA5A; recombinant, obtained in-house
T6 sequence (P35218 39-305): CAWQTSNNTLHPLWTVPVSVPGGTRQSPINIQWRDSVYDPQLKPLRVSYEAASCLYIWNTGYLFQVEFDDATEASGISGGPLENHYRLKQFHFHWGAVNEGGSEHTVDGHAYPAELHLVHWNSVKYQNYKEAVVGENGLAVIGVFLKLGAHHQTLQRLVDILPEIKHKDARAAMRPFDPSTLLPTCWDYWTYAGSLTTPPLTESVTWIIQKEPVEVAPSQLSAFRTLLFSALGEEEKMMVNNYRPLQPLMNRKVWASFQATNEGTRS
From the text: stopped-flow CO2 hydration on hCA VA

hCA III = biological target: T7, hCA III (Homo sapiens, UniProt P07451); conditions: read-out: KI (μM)^a^,^b / hCA III
T7 construct: gene CA3; recombinant, obtained in-house
T7 sequence (P07451 2-260): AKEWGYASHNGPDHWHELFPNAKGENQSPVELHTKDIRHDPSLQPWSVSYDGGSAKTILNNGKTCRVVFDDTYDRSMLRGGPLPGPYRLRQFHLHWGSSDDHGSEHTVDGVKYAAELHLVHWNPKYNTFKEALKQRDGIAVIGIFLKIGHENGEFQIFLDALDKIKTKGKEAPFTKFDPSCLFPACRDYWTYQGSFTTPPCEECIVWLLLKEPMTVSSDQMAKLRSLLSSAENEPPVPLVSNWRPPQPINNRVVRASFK
From the text: stopped-flow CO2 hydration on hCA III

hCA IV = biological target: T8, hCA IV (Homo sapiens, UniProt P22748); conditions: read-out: KI (μM)^a^,^b / hCA IV
T8 construct: gene CA4; recombinant, obtained in-house
T8 sequence (P22748 19-284): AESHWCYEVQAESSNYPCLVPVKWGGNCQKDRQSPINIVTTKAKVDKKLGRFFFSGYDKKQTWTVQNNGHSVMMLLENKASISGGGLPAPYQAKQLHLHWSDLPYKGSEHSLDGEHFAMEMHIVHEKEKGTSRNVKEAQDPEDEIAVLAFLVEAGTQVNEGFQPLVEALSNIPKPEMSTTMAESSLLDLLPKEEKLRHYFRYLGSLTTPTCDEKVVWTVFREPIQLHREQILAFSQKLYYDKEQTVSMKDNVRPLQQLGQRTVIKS
From the text: stopped-flow CO2 hydration on hCA IV

hCA VII = biological target: T9, hCA VII (Homo sapiens, UniProt P43166); conditions: read-out: KI (μM)^a^,^b / hCA VII
T9 construct: gene CA7; recombinant, obtained in-house
T9 sequence (P43166 whole entry): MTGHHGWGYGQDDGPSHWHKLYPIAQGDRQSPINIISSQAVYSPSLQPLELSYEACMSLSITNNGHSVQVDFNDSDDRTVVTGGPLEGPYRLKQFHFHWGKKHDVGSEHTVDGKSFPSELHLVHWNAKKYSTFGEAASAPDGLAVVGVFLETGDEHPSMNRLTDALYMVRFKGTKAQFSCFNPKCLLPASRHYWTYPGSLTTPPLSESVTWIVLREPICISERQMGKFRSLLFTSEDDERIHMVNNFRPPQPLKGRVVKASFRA

hCA XIV = biological target: T10, hCA XIV (Homo sapiens, UniProt Q9ULX7); conditions: read-out: KI (μM)^a^,^b / hCA XIV
T10 construct: gene CA14; recombinant, obtained in-house
T10 sequence (Q9ULX7 16-290 limits assumed): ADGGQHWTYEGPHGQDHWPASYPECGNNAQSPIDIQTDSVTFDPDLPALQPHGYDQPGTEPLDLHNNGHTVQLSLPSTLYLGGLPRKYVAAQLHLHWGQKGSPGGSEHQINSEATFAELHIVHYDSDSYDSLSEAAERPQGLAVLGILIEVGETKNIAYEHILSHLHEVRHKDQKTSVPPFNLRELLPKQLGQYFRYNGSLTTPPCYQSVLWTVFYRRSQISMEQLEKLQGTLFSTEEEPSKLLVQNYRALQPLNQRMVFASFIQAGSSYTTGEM
From the text: stopped-flow CO2 hydration on hCA XIV

hCA VB = biological target: T11, hCA VB (Homo sapiens, UniProt Q9Y2D0); conditions: read-out: KI (μM)^a^,^b / hCA VB
T11 construct: gene CA5B; recombinant, obtained in-house
T11 sequence (Q9Y2D0 34-317): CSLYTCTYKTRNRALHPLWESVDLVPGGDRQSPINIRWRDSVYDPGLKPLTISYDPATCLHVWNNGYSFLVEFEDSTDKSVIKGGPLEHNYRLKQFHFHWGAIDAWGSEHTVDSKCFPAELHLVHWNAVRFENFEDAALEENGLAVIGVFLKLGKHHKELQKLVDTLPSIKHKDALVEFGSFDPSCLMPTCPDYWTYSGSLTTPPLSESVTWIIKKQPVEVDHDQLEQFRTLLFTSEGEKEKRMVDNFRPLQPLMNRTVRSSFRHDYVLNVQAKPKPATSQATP
From the text: stopped-flow CO2 hydration on hCA VB

mCA XIII = biological target: T12, mCA XIII (Mus musculus, UniProt Q9D6N1); conditions: read-out: KI (μM)^a^,^b / mCA XIII
T12 construct: gene Ca13; recombinant, obtained in-house
T12 sequence (Q9D6N1 whole entry): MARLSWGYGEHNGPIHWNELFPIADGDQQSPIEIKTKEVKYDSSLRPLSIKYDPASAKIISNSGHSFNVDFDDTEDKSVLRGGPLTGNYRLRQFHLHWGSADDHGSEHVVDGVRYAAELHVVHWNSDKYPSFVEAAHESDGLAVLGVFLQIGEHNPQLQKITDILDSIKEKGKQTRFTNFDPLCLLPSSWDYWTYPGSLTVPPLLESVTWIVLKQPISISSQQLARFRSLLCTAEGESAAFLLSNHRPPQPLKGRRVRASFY
From the text: stopped-flow CO2 hydration on mCA XIII

hCA I [2] = biological target: T2, hCA I; conditions: CO2 1.7-17 mM, 20 mM Hepes pH 7.5, 20 mM Na2SO4, 15 min preincubation, room temperature; unreliable: table and text (69.8) disagree
From the text: stopped-flow CO2 hydration on hCA I

[3] = read-out: KI (μM)^a^,^b / hCA I
[4] = read-out: KI (μM)^a^,^b / hCA II
[5] = read-out: KI (μM)^a^,^b / hCA IX^c
[6] = read-out: KI (μM)^a^,^b / hCA XII^c
[7] = CO2 1.7-17 mM, 20 mM Hepes pH 7.5, 20 mM Na2SO4, 15 min preincubation, room temperature, read-out: KI (μM)^a^,^b / hCA I

SMILES	Ki (hCA VI) [µM]	Ki (hCA VA) [µM]	Ki (hCA III) [µM]	Ki (hCA IV) [µM]	Ki (hCA I [1]; [3]) [µM]	Ki (hCA II; [4]) [µM]	Ki (hCA IX; [5]) [µM]	Ki (hCA XII; [6]) [µM]	Ki (hCA VII) [µM]	Ki (hCA XIV) [µM]	Ki (hCA VB) [µM]	further results
NS(=O)(=O)Nc1ccccc1 [2b, sulphamide 2b]	–	–	–	–	–	–	–	–	–	–	–	Ki (hCA IX; read-out: hCA IX): 0.071 µM
NC(=O)Oc1ccccc1 [7a, carbamate 7a]	–	–	–	–	–	–	–	–	–	–	–	Ki (hCA I [1]; read-out: hCA I): 720 µM; Ki (hCA II; read-out: hCA II): 110 µM; Ki (hCA IX; read-out: hCA IX): 10.1 µM; Ki (hCA XII; read-out: hCA XII): 2.81 µM
O=S(=O)(O)c1ccccc1 [compound 1, benzenesulphonic acid]	8.8	80.9	6.63	9.1	8.65	9.3	9.55	6.45	7.93	8.79	79.8	Ki (mCA XIII): 8.72 µM
NS(=O)(=O)c1ccccc1 [compound 2, benzenesulphonamide]	0.097	1.68	2.26	7.96	–	–	–	–	–	0.092	8.82	Ki (hCA IX; read-out: KI (μM)^a^,^b / hCA VI): 0.097 µM; Ki (mCA XIII): 0.1 µM
NNS(=O)(=O)c1ccccc1 [compound 3, N-amino sulphonamide 3]	74.4	7.75	6.28	78.4	–	5.31	51.7	2.42	8.56	3.81	95.2	KI (μM)^a^,^b / hCA I (hCA I [2]): 9.8 µM; Ki (mCA XIII): 5.96 µM
O=S(=O)(NO)c1ccccc1 [compound 4, N-hydroxysulphonamide 4]	86.2	5.28	4.42	24.6	2.73	5.47	60.3	1.53	8.73	1.66	67.9	–
CONS(=O)(=O)c1ccccc1 [compound 5, N-methoxysulphonamide 5]	27	6.7	5.72	39.5	> 1000	8.96	64.3	8.32	9.56	1.57	10.7	–
O=C(O)c1ccccc1 [compound 6, benzoic acid]	91.6	7.12	35.7	434	–	30.1	66.5	20.4	92.2	0.98	9.6	Ki (hCA I [1]; [7]): 730 µM
NC(=O)c1ccccc1 [compound 7, carboxamide 7]	82.6	46.8	35.7	381	324	93.2	3.67	11.2	76.8	27	83.1	–
NNC(=O)c1ccccc1 [compound 8, hydrazide 8]	63.5	59.3	40.2	335	91.2	231	48.4	45	76.7	0.99	75.9	–
O=C(NO)c1ccccc1 [compound 9, hydroxamic acid 9]	78.1	67.4	44.8	84.7	–	–	–	–	70.7	0.94	53.6	Ki (hCA I [1]; [7]): 83.1 µM; Ki (hCA II; CO2 1.7-17 mM, 20 mM Hepes pH 7.5, 20 mM Na2SO4, 15 min preincubation, room temperature, read-out: KI (μM)^a^,^b / hCA II): 179 µM; Ki (hCA IX; CO2 1.7-17 mM, 20 mM Hepes pH 7.5, 20 mM Na2SO4, 15 min preincubation, room temperature, read-out: KI (μM)^a^,^b / hCA IX^c): 45.9 µM
CONC(=O)c1ccccc1 [compound 10, methylated hydroxamate 10]	89.9	89.1	37.3	111	72.5	341	57.5	28.5	72.2	10	57.3	–
